Substitutions are numbered along the chain they refer to. Where “and” joins values, the source holds several entries; their conditions need not be identical. Equal entries are not always repeated. Entries after “also recorded” stand apart in the source; their conditions may differ. Where two headings read alike, the source gives them in different places.
Columns and labels:
wild type MUP20 [1] = target: T1, wild type MUP20 (Mus musculus, UniProt Q5FW60); test: Fluorescence competitive binding assay with 1-NPN, wild type MUP20; conditions: 1-NPN displacement, 50 mM Tris-HCl pH 7.4, 25 °C
T1 construct: 6xHis (N); made in house; host or cells: E. coli BL21(DE3), pET5b
T1 sequence (Q5FW60 20-181): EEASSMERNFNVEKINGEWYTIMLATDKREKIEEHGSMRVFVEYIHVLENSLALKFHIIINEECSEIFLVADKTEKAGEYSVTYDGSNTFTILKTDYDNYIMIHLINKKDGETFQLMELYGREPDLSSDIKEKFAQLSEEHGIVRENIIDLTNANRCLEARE
Method: (§1) Fluorescence competitive binding assays: Fluorescence-competitive binding assays were carried out using the fluorescent probe N-phenyl-1-naphthylamine (1-NPN), as described[39],[40]. A binding curve was constructed and the dissociation constant of the probe (KD) was calculated.
(§2) The binding analyses assumed that the protein had 100% activity and that the stoichiometry of binding was 1:1 at saturation. The affinity of various volatile ligands was measured in competitive binding assays.
(§3) The change in fluorescence was recorded after adding increasing concentrations of ligand. Competitor concentrations causing a decay of fluorescence to half-maximal intensity were determined as IC50 and the dissociation constant for the test ligands (expressed as Kd) was calculated using the following formula:1 Kd=[IC50]/1+[Probe]/KD where [Probe] is the free concentration of the fluorescent probe and KD is the dissociation constant of the complex Protein/Probe.

MUP20V59T = target: T2, MUP20V59T (Mus musculus, UniProt Q5FW60, V59T); test: Fluorescence competitive binding assay with 1-NPN, MUP20 V59T
T2 construct: 6xHis (N); made in house; host or cells: E. coli BL21(DE3), pET5b
T2 sequence (Q5FW60 20-181 V59T): T1 sequence (Q5FW60 20-181) with V40T
Method: as §1, §2, §3

MUP20L88Q [2] = target: T3, MUP20L88Q (Mus musculus, UniProt Q5FW60, L88Q); test: Fluorescence competitive binding assay with 1-NPN, MUP20 L88Q; conditions: 1-NPN displacement, 50 mM Tris-HCl pH 7.4, 25 °C
T3 construct: 6xHis (N); made in house; host or cells: E. coli BL21(DE3), pET5b
T3 sequence (Q5FW60 20-181 L88Q): T1 sequence (Q5FW60 20-181) with L69Q
Method: as §1
The affinity of various volatile ligands was measured in competitive binding assays.
as §3

MUP20Y103D [3] = target: T4, MUP20Y103D (Mus musculus, UniProt Q5FW60, Y103D); test: Fluorescence competitive binding assay with 1-NPN, MUP20 Y103D
T4 construct: 6xHis (N); made in house; host or cells: E. coli BL21(DE3), pET5b
T4 sequence (Q5FW60 20-181 Y103D): T1 sequence (Q5FW60 20-181) with Y84D
Method: as §1, §2, §3

MUP20Y103R = target: T5, MUP20Y103R (Mus musculus, UniProt Q5FW60, Y103R); test: Fluorescence competitive binding assay with 1-NPN, MUP20 Y103R
T5 construct: 6xHis (N); made in house; host or cells: E. coli BL21(DE3), pET5b
T5 sequence (Q5FW60 20-181 Y103R): T1 sequence (Q5FW60 20-181) with Y84R
Method: as §1, §2, §3

MUP20N107L = target: T6, MUP20N107L (Mus musculus, UniProt Q5FW60, N107L); test: Fluorescence competitive binding assay with 1-NPN, MUP20 N107L
T6 construct: 6xHis (N); made in house; host or cells: E. coli BL21(DE3), pET5b
T6 sequence (Q5FW60 20-181 N107L): T1 sequence (Q5FW60 20-181) with N88L
Method: as §1, §2, §3

MUP20L124V [4] = target: T7, MUP20L124V (Mus musculus, UniProt Q5FW60, L124V); test: Fluorescence competitive binding assay with 1-NPN, MUP20 L124V
T7 construct: 6xHis (N); made in house; host or cells: E. coli BL21(DE3), pET5b
T7 sequence (Q5FW60 20-181 L124V): T1 sequence (Q5FW60 20-181) with L105V
Method: as §1, §2, §3

MUP20E137K = target: T8, MUP20E137K (Mus musculus, UniProt Q5FW60, E137K); test: Fluorescence competitive binding assay with 1-NPN, MUP20 E137K
T8 construct: 6xHis (N); made in house; host or cells: E. coli BL21(DE3), pET5b
T8 sequence (Q5FW60 20-181 E137K): T1 sequence (Q5FW60 20-181) with E118K
Method: as §1, §2, §3

wild type MUP20 [5] = target: T1, wild type MUP20; test: Isothermal titration calorimetry, wild type MUP20; format: binding; conditions: for Kd: one-site binding model, 25 °C, 50 mM Tris HCl pH 7.4, read-out: Equilibrium dissociation constant Kd (ITC), WT
Method: (§4) ITC titrations were performed at 25 ± 0.1 °C in 50 mM Tris HCl pH 7.4, using a MicroCal VP-ITC instrument. To a MUP solution (1.7 ml, 25 µM) were sequentially added 25 aliquots (10 μl each) of a ligand stock solution (500 μM), with a delay of 4 min after each injection with continuous stirring of the solution (at 307 r.p.m.) in the sample cell. Before analysis, protein samples were dialyzed overnight in the same buffer, using a Slide-A-Lyzer (3.5-kDa cutoff) from ThermoFisher Scientific (Waltham, MA, USA), and thoroughly degassed. The heat of dilution was determined in control experiments by injecting aliquots (10 µl) of a ligand stock solution (500 µM) into buffer and this was subtracted from the integrated binding isotherm prior to curve fitting. Each injection generated a heat-burst curve (μcal s^−1) versus time (min). The area under each peak was determined by integration using Origin 7.5 software (Microcal, Inc.) to give the heat associated with the injection. The heat exchanged per mole of injectant was plotted against the ligand:protein molar ratio. The binding constants (Ka) and stoichiometry (N) parameters of the binding process were obtained by fitting the integrated heats of binding to the one-site binding model using the MicroCal ITC Data Analysis software.

MUP20 mutant L88Q = target: T9, MUP20 mutant L88Q (Mus musculus, UniProt Q5FW60, L88Q); test: Isothermal titration calorimetry, MUP20 L88Q; format: binding; conditions: for Kd: one-site binding model, 25 °C, 50 mM Tris HCl pH 7.4, read-out: Equilibrium dissociation constant Kd (ITC), L88Q
T9 construct: 6xHis (N); made in house; host or cells: E. coli BL21(DE3), pET5b
T9 sequence (Q5FW60 20-181 L88Q): T1 sequence (Q5FW60 20-181) with L69Q
Method: as §4

MUP20 mutant L124V = target: T10, MUP20 mutant L124V (Mus musculus, UniProt Q5FW60, L124V); test: Isothermal titration calorimetry, MUP20 L124V; format: binding; conditions: for Drop of affinity of L124V compared to wild-type MUP20 (ITC): decrease in affinity; for Kd: one-site binding model, 25 °C, 50 mM Tris HCl pH 7.4, read-out: Equilibrium dissociation constant Kd (ITC), L124V
T10 construct: 6xHis (N); made in house; host or cells: E. coli BL21(DE3), pET5b
T10 sequence (Q5FW60 20-181 L124V): T1 sequence (Q5FW60 20-181) with L105V
Method: as §4

MUP20 mutant Y103R = target: T11, MUP20 mutant Y103R (Mus musculus, UniProt Q5FW60, Y103R); test: Isothermal titration calorimetry, MUP20 Y103R; format: binding; conditions: 25 °C, 50 mM Tris HCl pH 7.4
T11 construct: 6xHis (N); made in house; host or cells: E. coli BL21(DE3), pET5b
T11 sequence (Q5FW60 20-181 Y103R): T1 sequence (Q5FW60 20-181) with Y84R
Method: as §4

wild type MUP20 [6] = target: T1, wild type MUP20; parameters: method as in Scorsone et al., IEEE Sensors Journal 2016, 16, 6543, Tab. 1; conditions: ref Scorsone et al., IEEE Sensors Journal 2016, 16, 6543, Tab. 1; read-out: Kd, WT (starred value); cited from earlier work
MUP20L88Q [7] = target: T3, MUP20L88Q; parameters: method as in Scorsone et al., IEEE Sensors Journal 2016, 16, 6543, Tab. 1; conditions: ref Scorsone et al., IEEE Sensors Journal 2016, 16, 6543, Tab. 1; read-out: Kd, L88Q (starred value); cited from earlier work
MUP20Y103D [8] = target: T4, MUP20Y103D; parameters: method as in Scorsone et al., IEEE Sensors Journal 2016, 16, 6543, Tab. 1; conditions: ref Scorsone et al., IEEE Sensors Journal 2016, 16, 6543, Tab. 1; read-out: Kd, Y103D (starred value); cited from earlier work
MUP20L124V [9] = target: T7, MUP20L124V; parameters: method as in Scorsone et al., IEEE Sensors Journal 2016, 16, 6543, Tab. 1; conditions: ref Scorsone et al., IEEE Sensors Journal 2016, 16, 6543, Tab. 1; read-out: Kd, L124V (starred value); cited from earlier work
[10] = 1-NPN displacement, 50 mM Tris-HCl pH 7.4, 25 °C, read-out: Measured Kd, V59T
[11] = 1-NPN displacement, 50 mM Tris-HCl pH 7.4, 25 °C, read-out: Measured Kd, Y103D
[12] = 1-NPN displacement, 50 mM Tris-HCl pH 7.4, 25 °C, read-out: Measured Kd, Y103R
[13] = 1-NPN displacement, 50 mM Tris-HCl pH 7.4, 25 °C, read-out: Measured Kd, N107L
[14] = 1-NPN displacement, 50 mM Tris-HCl pH 7.4, 25 °C, read-out: Measured Kd, L124V
[15] = 1-NPN displacement, 50 mM Tris-HCl pH 7.4, 25 °C, read-out: Measured Kd, E137K

Row | Compound | Kd (wild type MUP20 [1]; read-out: Measured Kd, WT) | Kd (MUP20V59T; [10]) | Kd (MUP20L88Q [2]; read-out: Measured Kd, L88Q) | Kd (MUP20Y103D [3]; [11]) | Kd (MUP20Y103R; [12]) | Kd (MUP20N107L; [13]) | Kd (MUP20L124V [4]; [14]) | Kd (MUP20E137K; [15]) | Kd (wild type MUP20 [5]) | Kd (MUP20 mutant L88Q) | Drop of affinity of L124V compared to wild-type MUP20 (ITC) (MUP20 mutant L124V) | Kd (MUP20 mutant L124V) | Binding strength to Y103R mutant (ITC) (MUP20 mutant Y103R) | also measured
1 | Cc1ccc(O)c(C)c1 [2,4-DMP, 2,4-dimethylphenol] | – | – | – | – | – | – | – | – | – | – | – | – | – | Kd (wild type MUP20 [1]; Measured Kd, WT): 4.24 µM; Kd (MUP20V59T): 1.44 µM; Kd (MUP20L88Q [2]; Measured Kd, L88Q): 5.08 µM; Kd (MUP20Y103D [3]): 4.68 µM; Kd (MUP20Y103R): 11.9 µM; Kd (MUP20N107L): 1.99 µM; Kd (MUP20L124V [4]): 1.3 µM; Kd (MUP20E137K): 4.05 µM
2 | CC1=CC(=O)c2ccccc2C1=O [MEN, methylnapthalene-1,4-dione] | – | 1.85 µM | – | – | – | 1.23 µM | – | 2.14 µM | 76 ± 19 µM | 13 ± 6 µM | 25 fold | 1900 ± 100 µM | barely detectable | Kd (wild type MUP20 [6]): 0.61 µM; Kd (MUP20L88Q [7]): 1.31 µM; Kd (MUP20Y103D [8]): 0.82 µM; Kd (MUP20L124V [9]): 0.07 µM
3 | COc1nccnc1CC(C)C [PYR, 2-isobutyl-3-methoxypyrazine] | 1.29 µM and 1.3 µM | 1.93 µM | 1.39 µM and 1.4 µM | 0.84 µM | 0.74 µM | 1.4 µM | 0.07 µM | 1.52 µM | 1.6 µM | 2.4 µM | 1300 fold | 2100 ± 200 µM | barely detectable | Affinity for wild type MUP20 relative to MEN (ITC) (wild type MUP20 [5]; higher affinity than MEN): > 40 fold; Change of affinity of L88Q compared to wild-type MUP20 (ITC) (MUP20 mutant L88Q; number = increase in affinity): did not appreciably affect; also recorded: does not alter

More lines, main results first:

Row | Kd (wild type MUP20 [1]; read-out: Measured Kd, WT) | Kd (MUP20V59T; [10]) | Kd (MUP20L88Q [2]; read-out: Measured Kd, L88Q) | Kd (MUP20Y103D [3]; [11]) | Kd (MUP20Y103R; [12]) | Kd (MUP20N107L; [13]) | Kd (MUP20L124V [4]; [14]) | Kd (MUP20E137K; [15]) | Kd (wild type MUP20 [5]) | Kd (MUP20 mutant L88Q) | Drop of affinity of L124V compared to wild-type MUP20 (ITC) (MUP20 mutant L124V) | Kd (MUP20 mutant L124V) | Binding strength to Y103R mutant (ITC) (MUP20 mutant Y103R) | Compound | also measured
4 | 2.82 µM | 1.6 µM | 2.21 µM | 2.17 µM | 5.93 µM | 1.37 µM | 0.29 µM | 1.85 µM | – | – | – | – | – | C=CC(C)(O)CCC=C(C)C (stereo not drawn) [LIN, 3,7-dimethylocta-1,6-dien-3-ol] | –
5 | 0.78 µM | 1.54 µM | 1.45 µM | 0.92 µM | 1.88 µM | 2.67 µM | 0.36 µM | 3.2 µM | – | – | – | – | – | CCCCCCC(CO)CCCC (stereo not drawn) [OCT, 2-butyl-1-octanol] | –
